Patent US20060111363A1, “Treatment of uveal melanoma” (priority 2002, published 2006)
Values joined by “and” are separate entries in the source; they are usually repeats but may differ in a detail not shown here. Equal entries are not always repeated. Where two headings read alike, the source gives them in different places.

Experiments:
UM 92-1 cells = conditions: runs 1 and 2
Text: (§1) The test is based on a colorimetric change of the yellow tetrazolium slat XTT into orange formazan dye by the respiratory chain of viable cells (Roehm et al., 1991, J. Immunol. Assay, 142:257-265).

[1] = system: DFB skin melanoma cell line; conditions: read-out: IC50 of Salt I on survival
Text: (§2) Cell proliferation kit II is purchased from Roche Diagnostic GmbH (Mannheim, Germany). The test is based on a colorimetric change of the yellow tetrazolium slat XTT into orange formazan dye by the respiratory chain of viable cells (Roehm et al., 1991, J. Immunol. Assay, 142:257-265).

OCM-1 cells = test: XTT cell viability, uveal melanoma cell line OCM-1; conditions: for percentages of living cells as compared to 100% survival of untreated cells: runs 1 and 2
Text: as §1

[2] = system: uveal melanoma cell lines (OCM-1, OCM-3, 92-1 and mel 202); test: Survival / cell death of the four uveal melanoma cell lines; type: cell-based, human
Text: Cell culture: Four cell lines obtained from human primary uveal melanomas (OCM-1, OCM-3, 92-1 and mel 202) are used.

[3] = system: BE skin melanoma cell line; conditions: read-out: IC50 of Salt I on survival
Text: as §2

mel 202 cells = test: XTT cell viability, uveal melanoma cell line mel 202; conditions: for percentages of living cells as compared to 100% survival of untreated cells: runs 1 and 2
Text: as §1

OCM-3 cells = test: XTT cell viability, uveal melanoma cell line OCM-3; conditions: for percentages of living cells as compared to 100% survival of untreated cells: runs 1 and 2
Text: as §1

c-kit = c-kit (Homo sapiens, UniProt P10721); conditions: treatment of uveal melanoma cell lines
c-kit, sequence (P10721 26-976): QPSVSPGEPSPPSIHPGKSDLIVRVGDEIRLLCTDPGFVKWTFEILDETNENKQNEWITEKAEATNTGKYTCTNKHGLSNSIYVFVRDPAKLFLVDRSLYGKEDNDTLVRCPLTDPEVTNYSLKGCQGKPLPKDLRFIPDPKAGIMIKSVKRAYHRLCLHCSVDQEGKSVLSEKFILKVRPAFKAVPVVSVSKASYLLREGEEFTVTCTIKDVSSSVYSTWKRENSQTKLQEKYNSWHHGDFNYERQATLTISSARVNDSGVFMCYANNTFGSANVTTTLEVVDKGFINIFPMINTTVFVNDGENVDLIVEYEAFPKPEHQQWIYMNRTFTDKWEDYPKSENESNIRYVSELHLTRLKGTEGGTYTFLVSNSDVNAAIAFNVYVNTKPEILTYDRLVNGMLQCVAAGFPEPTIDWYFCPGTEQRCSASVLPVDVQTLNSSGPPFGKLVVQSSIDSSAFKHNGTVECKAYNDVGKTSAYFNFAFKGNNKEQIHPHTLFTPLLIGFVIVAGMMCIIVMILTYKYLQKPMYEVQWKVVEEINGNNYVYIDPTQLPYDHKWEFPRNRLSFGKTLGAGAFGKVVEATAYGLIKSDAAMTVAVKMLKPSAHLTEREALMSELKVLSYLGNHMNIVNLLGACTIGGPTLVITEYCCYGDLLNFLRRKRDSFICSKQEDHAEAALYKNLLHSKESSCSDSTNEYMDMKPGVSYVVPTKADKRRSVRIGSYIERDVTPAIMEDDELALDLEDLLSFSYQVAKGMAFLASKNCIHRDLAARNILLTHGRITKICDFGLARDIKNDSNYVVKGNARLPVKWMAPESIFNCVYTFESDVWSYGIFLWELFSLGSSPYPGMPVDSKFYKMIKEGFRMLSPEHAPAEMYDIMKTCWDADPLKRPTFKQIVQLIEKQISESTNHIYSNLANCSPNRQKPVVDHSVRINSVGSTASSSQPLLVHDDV

Structure (SMILES): CS(=O)(=O)O.Cc1ccc(NC(=O)c2ccc(CN3CCN(C)CC3)cc2)cc1Nc1nccc(-c2cccnc2)n1 [Salt I]
- percentages of living cells as compared to 100% survival of untreated cells (UM 92-1 cells; UM 92-1, 24 h, 0.3 μM Salt I): 98% and 91%
- percentages of living cells as compared to 100% survival of untreated cells (UM 92-1 cells; UM 92-1, 24 h, 0.6 μM Salt I): 95%
- percentages of living cells as compared to 100% survival of untreated cells (UM 92-1 cells; UM 92-1, 24 h, 5 μM Salt I): 83% and 75%
- percentages of living cells as compared to 100% survival of untreated cells (UM 92-1 cells; UM 92-1, 24 h, 10 μM Salt I): 70% and 83%
- percentages of living cells as compared to 100% survival of untreated cells (UM 92-1 cells; UM 92-1, 48 h, 0.3 μM Salt I): 85% and 90%
- percentages of living cells as compared to 100% survival of untreated cells (UM 92-1 cells; UM 92-1, 48 h, 0.6 μM Salt I): 79% and 71%
- percentages of living cells as compared to 100% survival of untreated cells (UM 92-1 cells; UM 92-1, 48 h, 5 μM Salt I): 15% and 22%
- percentages of living cells as compared to 100% survival of untreated cells (UM 92-1 cells; UM 92-1, 48 h, 10 μM Salt I): 0% and 5%
- IC50 [1]: > 20000 nM
- percentages of living cells as compared to 100% survival of untreated cells (OCM-1 cells; OCM-1, 24 h, 0.3 μM Salt I): 95% and 97%
- percentages of living cells as compared to 100% survival of untreated cells (OCM-1 cells; OCM-1, 24 h, 0.6 μM Salt I): 87% and 82%
- percentages of living cells as compared to 100% survival of untreated cells (OCM-1 cells; OCM-1, 24 h, 5 μM Salt I): 63%
- percentages of living cells as compared to 100% survival of untreated cells (OCM-1 cells; OCM-1, 24 h, 10 μM Salt I): 50% and 52%
- percentages of living cells as compared to 100% survival of untreated cells (OCM-1 cells; OCM-1, 48 h, 0.3 μM Salt I): 62% and 59%
- percentages of living cells as compared to 100% survival of untreated cells (OCM-1 cells; OCM-1, 48 h, 0.6 μM Salt I): 40% and 37%
- percentages of living cells as compared to 100% survival of untreated cells (OCM-1 cells; OCM-1, 48 h, 5 μM Salt I): 27% and 23%
- percentages of living cells as compared to 100% survival of untreated cells (OCM-1 cells; OCM-1, 48 h, 10 μM Salt I): 23% and 29%
- IC50 (OCM-1 cells; read-out: IC50 of Salt I on survival, uveal melanoma cell line OCM-1, Example 1: 48 hours exposure): 400 nM
- cell loss ([2]; uveal melanoma cell lines, even at low concentrations of Salt I): drastic cell loss
- Salt I responsiveness (skin melanoma cell lines): no respondent
- IC50 [3]: > 20000 nM
- percentages of living cells as compared to 100% survival of untreated cells (mel 202 cells; mel 202, 24 h, 0.3 μM Salt I): 98% and 105%
- percentages of living cells as compared to 100% survival of untreated cells (mel 202 cells; mel 202, 24 h, 0.6 μM Salt I): 92% and 104%
- percentages of living cells as compared to 100% survival of untreated cells (mel 202 cells; mel 202, 24 h, 5 μM Salt I): 97% and 101%
- percentages of living cells as compared to 100% survival of untreated cells (mel 202 cells; mel 202, 24 h, 10 μM Salt I): 78% and 87%
- percentages of living cells as compared to 100% survival of untreated cells (mel 202 cells; mel 202, 48 h, 0.3 μM Salt I): 23% and 14%
- percentages of living cells as compared to 100% survival of untreated cells (mel 202 cells; mel 202, 48 h, 0.6 μM Salt I): 19% and 17%
- percentages of living cells as compared to 100% survival of untreated cells (mel 202 cells; mel 202, 48 h, 5 μM Salt I): 23% and 15%
- IC50 (mel 202 cells; read-out: IC50 of Salt I on survival, uveal melanoma cell line mel 202, Example 1: 48 hours exposure): 70 nM
- percentages of living cells as compared to 100% survival of untreated cells (OCM-3 cells; OCM-3, 24 h, 0.3 μM Salt I): 100% and 97%
- percentages of living cells as compared to 100% survival of untreated cells (OCM-3 cells; OCM-3, 24 h, 0.6 μM Salt I): 100% and 105%
- percentages of living cells as compared to 100% survival of untreated cells (OCM-3 cells; OCM-3, 24 h, 5 μM Salt I): 85% and 83%
- percentages of living cells as compared to 100% survival of untreated cells (OCM-3 cells; OCM-3, 24 h, 10 μM Salt I): 87% and 98%
- percentages of living cells as compared to 100% survival of untreated cells (OCM-3 cells; OCM-3, 48 h, 0.3 μM Salt I): 43% and 39%
- percentages of living cells as compared to 100% survival of untreated cells (OCM-3 cells; OCM-3, 48 h, 0.6 μM Salt I): 34% and 27%
- IC50 (OCM-3 cells; read-out: IC50 of Salt I on survival, uveal melanoma cell line OCM-3, Example 1: 48 hours exposure): 150 nM

Structure (SMILES): Cc1ccc(NC(=O)c2ccc(CN3CCN(C)CC3)cc2)cc1Nc1nccc(-c2cccnc2)n1 [Compound I]
- cell death in vitro ([2]; four uveal melanoma cell lines): promotes in vitro cell death
- effect on c-kit auto-phosphorylation (c-kit): blocks c-kit auto-phosphorylation
